{"source": "patent US5929236A", "about": "“2-substituted morpholine and thiomorpholine derivatives as GABA-B antagonists” (Schering Corporation, priority 1995, dated 1999)", "key": {"[1]": {"target": "prejunctional GABAB receptors (Cavia porcellus, UniProt A0A286X9P6)", "sequence (A0A286X9P6 30-844)": "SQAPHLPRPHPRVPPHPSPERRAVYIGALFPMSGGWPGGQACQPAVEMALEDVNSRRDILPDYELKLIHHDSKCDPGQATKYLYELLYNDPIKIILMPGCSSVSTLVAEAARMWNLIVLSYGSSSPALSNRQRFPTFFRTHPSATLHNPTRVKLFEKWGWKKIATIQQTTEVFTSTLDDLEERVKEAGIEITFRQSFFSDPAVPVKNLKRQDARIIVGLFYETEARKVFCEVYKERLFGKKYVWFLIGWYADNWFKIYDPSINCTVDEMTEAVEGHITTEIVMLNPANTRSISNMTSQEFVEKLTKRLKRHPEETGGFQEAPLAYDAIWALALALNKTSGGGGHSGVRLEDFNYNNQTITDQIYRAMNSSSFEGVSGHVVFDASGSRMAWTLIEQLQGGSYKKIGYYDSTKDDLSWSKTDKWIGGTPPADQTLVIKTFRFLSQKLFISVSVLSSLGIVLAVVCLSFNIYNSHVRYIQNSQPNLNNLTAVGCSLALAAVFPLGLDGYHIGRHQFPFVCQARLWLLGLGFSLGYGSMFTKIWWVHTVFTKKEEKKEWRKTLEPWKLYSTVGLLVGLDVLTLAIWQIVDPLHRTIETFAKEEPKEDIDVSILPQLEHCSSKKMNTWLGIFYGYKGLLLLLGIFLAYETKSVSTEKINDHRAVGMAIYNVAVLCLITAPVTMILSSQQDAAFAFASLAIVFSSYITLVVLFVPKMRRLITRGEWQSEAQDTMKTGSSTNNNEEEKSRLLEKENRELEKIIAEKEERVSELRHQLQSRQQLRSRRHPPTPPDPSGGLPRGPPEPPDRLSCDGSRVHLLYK", "sequence (H0V741 1-820 partner)": "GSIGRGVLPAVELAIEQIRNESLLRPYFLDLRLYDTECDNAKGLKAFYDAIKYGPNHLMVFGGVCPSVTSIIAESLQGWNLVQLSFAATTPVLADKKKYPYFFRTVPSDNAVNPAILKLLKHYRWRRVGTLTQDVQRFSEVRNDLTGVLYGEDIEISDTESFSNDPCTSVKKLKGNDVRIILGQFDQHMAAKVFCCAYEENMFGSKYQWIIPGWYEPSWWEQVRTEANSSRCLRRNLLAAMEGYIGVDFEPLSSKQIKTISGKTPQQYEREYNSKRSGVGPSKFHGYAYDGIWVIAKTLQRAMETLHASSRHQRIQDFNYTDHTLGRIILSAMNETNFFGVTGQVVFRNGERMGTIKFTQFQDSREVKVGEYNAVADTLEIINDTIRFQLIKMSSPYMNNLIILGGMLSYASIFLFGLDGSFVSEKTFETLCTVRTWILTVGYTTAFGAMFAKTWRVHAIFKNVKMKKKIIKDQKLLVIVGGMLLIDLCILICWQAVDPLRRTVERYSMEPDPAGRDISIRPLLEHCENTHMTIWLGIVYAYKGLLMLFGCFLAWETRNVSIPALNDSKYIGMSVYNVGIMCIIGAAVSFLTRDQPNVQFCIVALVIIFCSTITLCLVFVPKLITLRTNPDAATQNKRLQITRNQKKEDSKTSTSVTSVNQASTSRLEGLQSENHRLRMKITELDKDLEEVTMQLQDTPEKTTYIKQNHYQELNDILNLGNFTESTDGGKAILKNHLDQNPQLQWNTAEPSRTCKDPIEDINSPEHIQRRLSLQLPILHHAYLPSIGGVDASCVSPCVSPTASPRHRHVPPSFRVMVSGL", "experiment": "In Vitro Assay (guinea pig trachea, reversal of baclofen inhibition of EFS-induced contractions)", "format": "cell-based, guinea pig (male Hartley)", "settings": "30 μmol/L baclofen", "procedure": "Male Hartley guinea pigs (450-650 g) are sacrificed by stunning and the trachea removed proximal to the carina and cut into 5 mm segments. The segments are attached to isometric force displacement transducers (Model FT03: Grass Instruments) and suspended in 15 mL organ baths filled with low Ca^2+ (0.6 mmol/L) Tyrode's buffer solution (pH 7.4) supplemented with 5.6 mmol/L glucose, 30 μmol/L choline and 2 μmol/L indomethacin. The solution is bubbled with a mixture of 95% O2 +5% CO2 and maintained at 37° C. The tracheal segments are allowed to equilibrate for 90 minutes under a resting tension of 0.5 g.\nPlatinum electrodes are placed on either side of the trachea and electrical field stimulation (EFS) (20 V, 8 Hz, 0.5 ms pulse for 5 s) was generated each minute from an electrical stimulator (Model S-88: Grass Instruments) and delivered to the electrodes through a stimulus distributor (Buxco Electronics). The stimulation parameters are chosen as appropriate for producing cholinergic contractions of the trachea that are sensitive to the inhibitory effects of compounds acting at prejunctional GABAB receptors. Contractile responses were recorded on a polygraph (Harvard Apparatus). The compound to be tested is added to the bath 10 min. before addition of 30 μmol/L baclofen. The effect of baclofen treatment in the absence or in the presence of the compound to be tested is expressed as a percent inhibition of EFS-induced contractions."}, "[2]": {"tested_on": "seizure in rats induced by GBL", "experiment": "Prevention of seizure in rats induced by GBL", "format": "in vivo, rat", "settings": "100 mg/kg GBL (ip)", "procedure": "Animal Models for Absence Seizures\nA. Snead, Eur. J. Pharmacol., 213, 343-349 (1992), teaches a pharmacological model for testing the effectiveness of GABAB antagonists in preventing seizures induced by intra-peritoneal (ip) administration of either γ-butyrolactone (GBL) or pentylenetetrazole (PTZ) to rats. The animal is treated with the test compound, then monitored after being subjected to a dose of either GBL or PTZ sufficient to induce seizures."}}}
{"smiles": "CC1(C)COC(CC(=O)O)CN1", "note": "(single isomer, unassigned) [Example 6A]", "values": [{"measurement": "inhibition at 30 µM", "setting": "[1]; 30 μM", "value": 90, "unit": "%"}, {"measurement": "IC30", "setting": "[1]; guinea pig trachea", "value": 1.1, "unit": "µM"}, {"measurement": "In Vitro % inhibition", "setting": "[1]; 100 μM", "value": 94, "unit": "%"}, {"measurement": "SWD duration", "setting": "[2]; 0.75 mg/kg, 20 min", "value": 970, "unit": "s"}, {"measurement": "SWD duration", "setting": "[2]; 0.75 mg/kg, 40 min", "value": 1150, "unit": "s"}, {"measurement": "SWD duration", "setting": "[2]; 0.75 mg/kg, 60 min", "value": 500, "unit": "s"}, {"measurement": "SWD duration", "setting": "[2]; 0.75 mg/kg, 80 min", "value": 280, "unit": "s"}, {"measurement": "SWD duration", "setting": "[2]; 0.75 mg/kg, 100 min", "value": 50, "unit": "s"}, {"measurement": "SWD duration", "setting": "[2]; 0.75 mg/kg, 120 min", "value": 0, "unit": "s"}, {"measurement": "SWD duration", "setting": "[2]; 1.5 mg/kg, 20 min", "value": 560, "unit": "s"}, {"measurement": "SWD duration", "setting": "[2]; 1.5 mg/kg, 40 min", "value": 540, "unit": "s"}, {"measurement": "SWD duration", "setting": "[2]; 1.5 mg/kg, 60 min", "value": 0, "unit": "s"}, {"measurement": "SWD duration", "setting": "[2]; 1.5 mg/kg, 80 min", "value": 0, "unit": "s"}, {"measurement": "SWD duration", "setting": "[2]; 1.5 mg/kg, 100 min", "value": 0, "unit": "s"}, {"measurement": "SWD duration", "setting": "[2]; 1.5 mg/kg, 120 min", "value": 0, "unit": "s"}, {"measurement": "SWD duration", "setting": "[2]; 3.0 mg/kg, 20 min", "value": 0, "unit": "s"}, {"measurement": "SWD duration", "setting": "[2]; 3.0 mg/kg, 40 min", "value": 0, "unit": "s"}, {"measurement": "SWD duration", "setting": "[2]; 3.0 mg/kg, 60 min", "value": 0, "unit": "s"}, {"measurement": "SWD duration", "setting": "[2]; 3.0 mg/kg, 80 min", "value": 0, "unit": "s"}, {"measurement": "SWD duration", "setting": "[2]; 3.0 mg/kg, 100 min", "value": 0, "unit": "s"}, {"measurement": "SWD duration", "setting": "[2]; 3.0 mg/kg, 120 min", "value": 0, "unit": "s"}]}
